Data from patent publication US6221863A, “3,4-dihydro-2H-benzo[1,4]oxazine derivatives” (American Home Products Corp., priority 1999, dated 2001).
Read-outs that look alike come from different tables or passages of the source.

What was measured:
[1] = target: T1, human 5-HT1A receptor (Homo sapiens, UniProt P08908); experiment: 5-HT1A receptor binding, [3H]8-OH-DPAT displacement in membranes of CHO cells expressing the human receptor; details: 5-HT1A.CHO membranes; for Ki: [3H]8-OH-DPAT 1.5 nM, 30 min, room temperature; for inhibition at 0.1 µM: at .1 μM, [3H]8-OH-DPAT, read-out: 5-HT1A (% Inh. @ .1 μM)
T1 construct: expressed in transfected cells
T1 sequence (P08908 1-422): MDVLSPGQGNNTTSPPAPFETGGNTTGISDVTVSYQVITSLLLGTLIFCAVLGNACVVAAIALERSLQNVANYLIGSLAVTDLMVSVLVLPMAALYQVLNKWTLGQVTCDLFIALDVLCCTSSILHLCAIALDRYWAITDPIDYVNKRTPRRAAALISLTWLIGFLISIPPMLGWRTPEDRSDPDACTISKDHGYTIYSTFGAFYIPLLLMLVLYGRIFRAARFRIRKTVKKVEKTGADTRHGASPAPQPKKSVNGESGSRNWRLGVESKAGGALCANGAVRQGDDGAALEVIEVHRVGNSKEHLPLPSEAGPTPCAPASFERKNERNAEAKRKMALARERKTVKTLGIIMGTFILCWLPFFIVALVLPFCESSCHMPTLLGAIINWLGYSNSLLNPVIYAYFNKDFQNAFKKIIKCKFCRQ
Experimental: (§1) The PCR cloning of the human ^5 -HT1A receptor subtype from a human genomic library has been described previously by Chanda et al., Mol. Pharmacol., 43:516 (1993). A stable Chinese hamster ovary cell line expressing the human S-HT1A receptor subtype (5-HT1A.CHO cells) was employed throughout this study. Cells were maintained in DMEM supplemented with 10% fetal calf serum, non-essential amino acids and penicillin/ streptomycin.
Cells were grown to 95-100% confluency as a monolayer before membranes were harvested for binding studies. Cells were gently scraped from the culture plates, transferred to centrifuge tubes, and washed twice by centrifugation (2000 rpm for 10 min., 4° C.) in buffer (50 mM Tris; pH 7.5). The resulting pellets were aliquoted and placed at -80.C. On the day of assay, the cells were thawed on ice, and resuspended in buffer. Studies were conducted using [^3 H]8-OH-DPAT as the radioligand. The binding assay was performed in 96 well mnicrotiter plates in a final total volume of 250 μL of buffer. Comparison experiments were performed by using 7 concentrations of unlabelled drug and a final ligand concentration of 1.5 nM . Non-specific binding was determined in the presence of 10 μM 5HT. Saturation analysis was conducted by using [^3 H]8-OH-DPAT at concentrations ranging from 0.3-30 nM. Following a 30 minute incubation at room temperature, the reaction was terminated by the addition of ice cold buffer and rapid filtration using a M-96 Brandel Cell Harvester Gaithersburg, Md.) through a GF/B filter presoaked for 30 minutes in 0.5% polyethyleneimine.

[2] = target: T1, human 5-HT1A receptor; experiment: [35S]-GTPγS binding in 5-HT1A cloned receptor membrane fragments; type: biochemical; details: [35S]GTPγS 1 nM, 30 min, 30° C.; excess 8-OH-DPAT defines maximum agonist response
Excerpt: as §1
The [^35 S]-GTPγS binding assay was similar to that used by Lazareno and Birdsall, Br. J. Pharmacol. 109:1120 (1993). Briefly, 5-HT1A cloned receptor membrane fragments (as used for 5-H1A receptor binding assays) were stored at -70° C. until needed. When needed, membranes were rapidly thawed, centrifuged at 40,000×g for 10 minutes and resuspended at 4° C. for 10 minutes in assay buffer (25 mM HEPES, 3 mM MgCl2, 100 mnM NaCl, 1 mM EDTA, 10 uM GDP, […] DTT, pH 8.0). These membranes were then incubated for 30 min at 30° C. with [^35 S]GTPgS (1 nM) in the presence of vehicle, test compound (one to eight concentrations), or excess 8-OH-DPAT to define maximum agonist response. All reactions are terminated by the addition of ice cold Tris buffer followed by rapid filtration using a Tom Tech® filtration device to separate bound from free [^35 S]GTPgS. Agonists produce an increase in the amount of [^35 S]GTPgS bound whereas antagonists produce no increase in binding. Bound radioactivity was counted and analyzed as above.

[3] = target: T2, serotonin transporter (Rattus norvegicus, UniProt P31652); experiment: serotonin transporter (ST) binding, 3H-paroxetine displacement in rat frontal cortical membranes; set-up: species or system rat (male Sprague-Dawley)
T2 construct: frontal cortical membranes prepared from male Sprague-Dawley rats; from tissue; host or cells: frontal cortical membranes of male Sprague-Dawley rats
Experimental: A protocol similar to that used by Cheetham et al., Neuropharmacol. , 32:737 (1993) was used to determine the affinity of compounds for the serotonin transporter. Briefly, frontal cortical membranes prepared from male Sprague-Dawley rats were incubated with ^3 H-paroxetine (0.1 nM) for 60 min at 25° C. All tubes also contained either vehicle, test compound (one to eight concentrations), or a saturating concentration of fluoxetine (10 μM) to define […]. All reactions were terminated by the addition of ice cold Tris buffer followed by rapid filtration using a Tom Tech filtration device to separate bound from free ^3 H-paroxetine. Bound radioactivity was quantitated using a Wallac 1205 Beta Plate® counter. Nonlinear regression analysis was used to determine IC50 values which were converted to Ki values using the method of Cheng and Prusoff, Biochem. Pharmacol., 22:3099 (1973); Ki=IC50/((Radioligand conc.)/(1+KD)).

[4] = 3H-paroxetine 0.1 nM, 60 min, 25° C., rat frontal cortical membranes, IC50 converted to Ki (Cheng-Prusoff), read-out: ST (Ki)

T2 sequence (P31652 whole entry): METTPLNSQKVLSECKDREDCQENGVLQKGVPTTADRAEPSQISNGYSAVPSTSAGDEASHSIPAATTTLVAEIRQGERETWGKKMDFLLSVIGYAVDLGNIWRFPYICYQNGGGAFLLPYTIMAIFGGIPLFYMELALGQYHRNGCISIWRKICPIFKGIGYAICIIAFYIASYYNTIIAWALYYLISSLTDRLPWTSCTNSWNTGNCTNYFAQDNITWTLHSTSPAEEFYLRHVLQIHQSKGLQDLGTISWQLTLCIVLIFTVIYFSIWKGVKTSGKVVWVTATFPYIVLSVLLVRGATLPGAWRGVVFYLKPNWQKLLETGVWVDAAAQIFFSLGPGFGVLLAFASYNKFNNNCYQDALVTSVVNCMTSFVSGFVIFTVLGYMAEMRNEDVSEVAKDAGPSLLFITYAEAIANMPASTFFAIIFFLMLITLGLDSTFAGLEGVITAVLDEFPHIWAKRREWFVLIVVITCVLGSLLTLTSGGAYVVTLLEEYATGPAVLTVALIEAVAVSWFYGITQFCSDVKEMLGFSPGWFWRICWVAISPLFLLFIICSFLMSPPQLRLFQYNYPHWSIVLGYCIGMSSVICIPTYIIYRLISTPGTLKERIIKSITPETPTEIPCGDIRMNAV

Structure (SMILES) | Ki [1] [nM] | Emax [2] [%] | Ki [3] [nM] | Ki [3, 4] [nM] | inhibition at 0.1 µM [1] [%]
COc1cccc2c1OC(CN1CC=C(c3c[nH]c4ccc(F)cc34)CC1)CN2 (centres unmarked) [Example 1, 2-[4-(5-Fluoro-1H-indol-3-yl)-3,6-dihydro-2H-pyridin-1-ylmethyl]-8-methoxy-3,4-dihydro-2H-benzo[1,4]oxazine] | 155 | 10 | 3.7 | – | –
C1=C(c2c[nH]c3ccccc23)CCN(CC2CNc3ccccc3O2)C1 (centres unmarked) [Example 5, 2-[4-(1H-Indol-3-yl)-3,6-dihydro-2H-pyridin-1-ylmethyl]-3,4-dihydro-2H-benzo[1,4]oxazine] | 805 | 57 | – | 0.74 | –
COc1cccc2c1OC(CN1CC=C(c3c[nH]c4ccc(F)cc34)CC1)CN2C (centres unmarked) [Example 2, 2-[4-(5-Fluoro-1H-indol-3-yl)-3,6-dihydro-2H-pyridin-1-ylmethyl]-8-methoxy-4-methyl-3,4-dihydro-2H-benzo[1,4]oxazine] | 140 | 97 | 8.5 | – | –
CCCN1CC(CN2CC=C(c3c[nH]c4ccc(F)cc34)CC2)Oc2c(OC)cccc21 (centres unmarked) [Example 4, 2-[4-(5-Fluoro-1H-indol-3-yl)-3,6-dihydro-2H-pyridin-1-ylmethyl]-8-methoxy-4-propyl-3,4-dihydro-2H-benzo[1,4]oxazine] | 363 | 100 | 20 | – | –
C1=C(c2c[nH]c3ncccc23)CCN(CC2CN(c3ccccc3)c3ccccc3O2)C1 (centres unmarked) [Example 6, 4-Phenyl-2-[4-(1H-pyrrolo[2,3,b]pyridin-3yl)-3,6-dihydro-2H-pyridin-1-ylmethyl]-3,4-dihydro-2H-benzo[1,4]oxazine] | – | 0 | 106 | – | 20
COc1cccc2c1OC(CN1CC=C(c3c[nH]c4ccc(F)cc34)CC1)CN2c1ccc(C(F)(F)F)cc1 (centres unmarked) [Example 7, 2-[4-(5-Fluoro-1H-Indol-3-yl)-3,6-dihydro-2H-pyridin-1-ylmethyl]-8-methoxy-4-(4-trifluoromethyl-phenyl)-3,4-dihydro-2H-benzo[1,4]oxazine] | – | – | – | 505 | 0
CCN1CC(CN2CC=C(c3c[nH]c4ccc(F)cc34)CC2)Oc2c(OC)cccc21 (centres unmarked) [Example 3, 2-[4-(5-Fluoro-1H-indol-3-yl)-3,6-dibydro-2H-pyridin-1-ylmetbyl]-8-methoxy-4-ethyl-3,4-dihydro-2H-benzo[1,4]oxazine] | 137 | 62 | 12 | – | –
